The structures appear in SMILES notation.

From ChEMBL document CHEMBL2073946, “Role of organic anion transporter OATP1B1 (OATP-C) in hepatic uptake of irinotecan and its active metabolite, 7-ethyl-10-hydroxycamptothecin: in vitro evidence and effect of single nucleotide polymorphisms” (Drug Metab Dispos, 2005) come the findings set out here.

Holding throughout (format): functional, cell-based
Series [1] has as its target T1, Solute carrier organic anion transporter family member 1B1 (Homo sapiens, UniProt Q9Y6L6).
T1 sequence (Q9Y6L6 whole entry): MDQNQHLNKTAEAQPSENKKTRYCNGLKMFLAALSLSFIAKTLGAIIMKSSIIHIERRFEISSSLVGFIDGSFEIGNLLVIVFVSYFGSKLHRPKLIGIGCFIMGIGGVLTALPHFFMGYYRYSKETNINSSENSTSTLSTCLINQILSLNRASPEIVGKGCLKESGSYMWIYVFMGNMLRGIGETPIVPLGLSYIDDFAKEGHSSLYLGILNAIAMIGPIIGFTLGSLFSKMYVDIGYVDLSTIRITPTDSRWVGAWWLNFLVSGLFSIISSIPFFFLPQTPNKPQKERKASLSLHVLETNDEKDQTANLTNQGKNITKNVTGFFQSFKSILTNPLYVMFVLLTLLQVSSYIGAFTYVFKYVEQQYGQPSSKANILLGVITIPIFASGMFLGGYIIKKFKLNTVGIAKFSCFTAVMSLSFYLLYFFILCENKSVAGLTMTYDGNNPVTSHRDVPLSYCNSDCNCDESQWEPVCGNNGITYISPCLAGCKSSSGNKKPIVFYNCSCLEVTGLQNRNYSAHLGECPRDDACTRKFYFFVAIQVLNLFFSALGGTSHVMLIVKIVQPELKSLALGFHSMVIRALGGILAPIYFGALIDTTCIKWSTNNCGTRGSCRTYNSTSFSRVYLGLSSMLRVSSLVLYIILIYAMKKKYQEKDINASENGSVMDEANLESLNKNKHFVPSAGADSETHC
In words: TP_TRANSPORTER: uptake in OATP1B1-expressing HEK293 cell.

For series [2], the target named is T1, Solute carrier organic anion transporter family member 1B1. The series can be described thus: TP_TRANSPORTER: inhibition of E1S uptake (SN38 G 10 u M) in OATP1B1-expressing HEK293 cells. The conditions noted are these: hek293, 10 µM.
The target is the same in series [3]. The series can be described thus: TP_TRANSPORTER: inhibition of E1S uptake (SN38 10 u M) in OATP1B1-expressing HEK293 cells. Set-up: scale not given: the % may be the effect or the level left. The conditions noted are these: hek293, 10 µM.
Series [4] has the same target. In words: TP_TRANSPORTER: uptake of SN-38 at a concentration of 0.16uL/oocyte in Xenopus laevis oocytes.
The target in series [5] is T2, Solute carrier organic anion transporter family member 1B3 (Homo sapiens, UniProt Q9NPD5).
T2 sequence (Q9NPD5 whole entry): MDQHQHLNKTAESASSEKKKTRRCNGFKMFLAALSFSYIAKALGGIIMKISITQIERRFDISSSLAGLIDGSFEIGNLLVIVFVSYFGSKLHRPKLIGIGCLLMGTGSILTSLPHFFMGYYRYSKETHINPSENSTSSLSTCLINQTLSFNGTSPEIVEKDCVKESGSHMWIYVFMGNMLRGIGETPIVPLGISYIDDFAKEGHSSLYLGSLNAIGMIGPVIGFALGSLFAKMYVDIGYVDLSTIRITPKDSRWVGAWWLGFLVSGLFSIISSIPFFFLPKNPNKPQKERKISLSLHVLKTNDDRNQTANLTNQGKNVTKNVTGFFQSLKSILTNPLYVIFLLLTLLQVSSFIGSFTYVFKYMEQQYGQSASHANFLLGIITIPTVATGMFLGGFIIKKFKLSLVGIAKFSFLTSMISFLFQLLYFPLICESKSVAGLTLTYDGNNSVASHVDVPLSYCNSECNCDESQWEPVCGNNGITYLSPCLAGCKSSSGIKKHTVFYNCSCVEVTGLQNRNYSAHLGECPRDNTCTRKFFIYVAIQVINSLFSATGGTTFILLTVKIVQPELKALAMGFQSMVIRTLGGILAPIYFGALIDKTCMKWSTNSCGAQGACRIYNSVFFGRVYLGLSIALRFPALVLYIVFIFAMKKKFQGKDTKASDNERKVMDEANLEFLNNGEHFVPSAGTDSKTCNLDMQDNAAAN
The series can be described thus: TP_TRANSPORTER: uptake of SN-38 at a concentration of 0.09uL/oocyte in Xenopus laevis oocytes.

Series [6] deals with T1, Solute carrier organic anion transporter family member 1B1. The series can be described thus: TP_TRANSPORTER: uptake in OATP1B1-expressing HEK293 cells.
Series [7] concerns the target T3, Solute carrier organic anion transporter family member 2B1 (Homo sapiens, UniProt O94956).
T3 sequence (O94956 whole entry): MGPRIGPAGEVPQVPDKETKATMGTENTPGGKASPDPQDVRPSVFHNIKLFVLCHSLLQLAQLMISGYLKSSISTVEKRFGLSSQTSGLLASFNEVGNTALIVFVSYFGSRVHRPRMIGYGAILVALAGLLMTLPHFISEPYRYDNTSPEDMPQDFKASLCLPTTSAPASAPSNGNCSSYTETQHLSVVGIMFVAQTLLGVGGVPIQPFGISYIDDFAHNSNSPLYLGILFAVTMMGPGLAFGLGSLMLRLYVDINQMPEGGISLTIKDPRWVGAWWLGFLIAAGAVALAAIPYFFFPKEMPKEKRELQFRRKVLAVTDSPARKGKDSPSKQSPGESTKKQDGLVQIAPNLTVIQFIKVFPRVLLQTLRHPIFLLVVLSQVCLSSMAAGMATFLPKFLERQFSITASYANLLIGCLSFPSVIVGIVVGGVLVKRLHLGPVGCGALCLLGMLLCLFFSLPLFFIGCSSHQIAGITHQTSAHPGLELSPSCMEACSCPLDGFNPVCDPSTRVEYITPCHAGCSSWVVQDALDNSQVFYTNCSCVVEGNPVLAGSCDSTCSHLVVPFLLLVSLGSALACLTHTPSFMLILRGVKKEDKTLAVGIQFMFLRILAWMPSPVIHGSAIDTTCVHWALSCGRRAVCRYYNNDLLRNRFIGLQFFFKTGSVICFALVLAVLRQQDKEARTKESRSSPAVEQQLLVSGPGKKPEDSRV
In words: TP_TRANSPORTER: uptake of SN-38 at a concentration of 0.10uL/oocyte in Xenopus laevis oocytes.

As for `CCc1c2c(nc3ccc(OC[C@@H]4O[C@H](C(=O)O)[C@@H](O)[C@H](O)[C@H]4O)cc13)-c1cc3c(c(=O)n1C2)COC(=O)[C@]3(O)CC`, the Activity entry in series [1] is “is not a substrate [-]”; in series [2], “is not an inhibitor [-]”.
With `CCc1c2c(nc3ccc(OC(=O)N4CCC(N5CCCCC5)CC4)cc13)-c1cc3c(c(=O)n1C2)COC(=O)[C@]3(O)CC` [IRINOTECAN], in series [1], the Activity result was “is not a substrate [-]”.
For the compound `CCc1c2c(nc3ccc(O)cc13)-c1cc3c(c(=O)n1C2)COC(=O)[C@]3(O)CC` [7-ETHYL-10-HYDROXYCAMPTOTHECIN], the Activity in series [3] was 50%; in series [1], “substrate [+]”; in series [4], “substrate [+]”; in series [5], “is not a substrate [-]”; in series [6] it was “substrate []”; in series [7], “is not a substrate [-]”.
